In patent publication US6596687B1, “Cell adhesion inhibitors” (Biogen, Inc., priority 1995, dated 2003) one finds IC50 data, which are given here for 49 molecules.

Numbered stars: 1 amine (or outer) side, 2 acyl side, 3 side chain; on linkers, the order of the positions; unused ones are H or OH. Square brackets hold non-standard residues; d marks the D form. Peptide text beside a SMILES is read from it. * marks the point of attachment. X3 = COc1cc(CC(=O)[*:2])ccc1N[*:1]; X2 = O=C(Cc1ccc(N[*:1])cc1)[*:2]; Suc = O=C(CCC(=O)[*:2])[*:1]; PhAc = O=C(Cc1ccccc1)*; CO = O=C([*:1])[*:2]; NHPh = c1ccc(N*)cc1; X4 = c1ccc(N*)nc1; X1 = Oc1ccccc1N*; NHiPr = CC(C)N*; NHBu = CCCCN*

For this test, the target named is T1, VLA4 (Homo sapiens, UniProt P05556+P13612).
T1 construct: endogenous in cells; host or cells: Ramos cells
T1 sequence (P13612 34-1032): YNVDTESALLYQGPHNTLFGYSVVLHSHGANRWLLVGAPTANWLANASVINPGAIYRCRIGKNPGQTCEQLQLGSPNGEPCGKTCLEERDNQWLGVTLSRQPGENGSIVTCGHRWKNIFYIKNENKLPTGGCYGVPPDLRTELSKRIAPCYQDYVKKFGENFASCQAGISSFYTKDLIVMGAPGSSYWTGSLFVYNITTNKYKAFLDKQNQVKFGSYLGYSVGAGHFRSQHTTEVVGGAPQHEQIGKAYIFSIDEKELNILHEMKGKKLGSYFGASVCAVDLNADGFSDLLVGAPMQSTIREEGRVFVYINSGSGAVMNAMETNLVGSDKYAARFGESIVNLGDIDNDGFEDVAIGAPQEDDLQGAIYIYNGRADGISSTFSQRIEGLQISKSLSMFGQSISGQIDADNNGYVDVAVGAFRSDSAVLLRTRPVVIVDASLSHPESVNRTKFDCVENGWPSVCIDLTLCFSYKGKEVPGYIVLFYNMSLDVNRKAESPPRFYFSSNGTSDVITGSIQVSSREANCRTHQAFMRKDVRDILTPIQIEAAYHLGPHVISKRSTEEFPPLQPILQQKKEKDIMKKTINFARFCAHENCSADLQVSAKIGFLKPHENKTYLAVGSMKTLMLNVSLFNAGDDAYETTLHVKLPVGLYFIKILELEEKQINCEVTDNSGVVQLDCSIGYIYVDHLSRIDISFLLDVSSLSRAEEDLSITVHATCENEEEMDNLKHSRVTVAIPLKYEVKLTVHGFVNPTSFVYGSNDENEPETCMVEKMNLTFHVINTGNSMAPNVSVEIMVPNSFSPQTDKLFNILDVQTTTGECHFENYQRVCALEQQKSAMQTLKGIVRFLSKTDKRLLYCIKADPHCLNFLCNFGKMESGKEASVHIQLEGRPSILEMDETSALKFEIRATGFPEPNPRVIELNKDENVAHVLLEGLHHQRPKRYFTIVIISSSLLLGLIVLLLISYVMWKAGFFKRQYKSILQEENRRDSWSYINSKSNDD
T1 sequence (P05556 21-798): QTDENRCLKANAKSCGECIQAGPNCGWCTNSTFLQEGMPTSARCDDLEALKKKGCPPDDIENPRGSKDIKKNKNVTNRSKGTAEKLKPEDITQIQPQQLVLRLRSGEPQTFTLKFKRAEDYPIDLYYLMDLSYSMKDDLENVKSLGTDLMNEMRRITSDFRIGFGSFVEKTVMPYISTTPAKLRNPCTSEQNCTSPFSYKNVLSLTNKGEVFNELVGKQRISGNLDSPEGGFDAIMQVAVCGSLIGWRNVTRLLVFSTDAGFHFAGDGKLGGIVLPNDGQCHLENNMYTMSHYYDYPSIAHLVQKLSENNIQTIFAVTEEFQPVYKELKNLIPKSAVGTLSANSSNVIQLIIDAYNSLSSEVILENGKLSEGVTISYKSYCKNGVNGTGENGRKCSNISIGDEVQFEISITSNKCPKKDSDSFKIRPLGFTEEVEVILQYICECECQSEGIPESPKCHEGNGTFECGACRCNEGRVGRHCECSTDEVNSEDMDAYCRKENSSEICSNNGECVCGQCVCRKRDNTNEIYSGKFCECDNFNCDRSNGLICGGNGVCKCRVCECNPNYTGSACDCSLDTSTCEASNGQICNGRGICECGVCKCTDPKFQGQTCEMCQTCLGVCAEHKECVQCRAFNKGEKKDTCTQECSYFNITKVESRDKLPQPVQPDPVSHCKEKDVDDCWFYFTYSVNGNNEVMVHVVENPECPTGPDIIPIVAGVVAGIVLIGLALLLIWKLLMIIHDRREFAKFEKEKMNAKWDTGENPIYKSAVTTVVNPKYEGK
Kind of test: Inhibition of VLA4-dependent adhesion of Ramos cells to BSA-CS1. It counts as cell-based. The following applies: Ramos cells, BSA-CS1 coated wells, 2 mM MnCl2, 30 minutes at room temperature; read-out: IC50. Put shortly:
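BCECF-AM-labelled Ramos cells in Tris buffer pH 7.4 with 2 mM MnCl2 were added with compound to wells coated with BSA-conjugated Cys-Tyr-CS1 peptide (1 μg/mL). Cells and compound were incubated for 30 min at room temperature, in triplicate. Inhibition was quantified from bound fluorescence against no-compound controls, with uncoated wells used for nonspecific binding.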
A word on the IC50: it is the concentration needed to halve the response being measured. `COC(=O)[C@@H](NC(=O)[C@H](CC(=O)O)NC(=O)[C@H](CC(C)C)N(C)C(=O)c1ccc2ccccc2n1)C(C)C` [Compound 142]: the IC50 is more than 10 µM.

On to `CC(C)C[C@H](NC(=O)c1cc2ccccc2cn1)C(=O)N[C@@H](CS)C(=O)N[C@H](C(=O)O)C(C)C` [Compound 9], for which the IC50 was more than 10 µM.

In the case of `CNC(=O)[C@H](COCc1ccccc1)NC(=O)[C@H](CC(=O)O)NC(=O)[C@H](CC(C)C)NC(=O)c1ccc2ccccc2n1` [Compound 353], the IC50 was more than 10 µM.

Take `CC(C)C[C@H](NC(=O)Cc1ccc(NC(=O)Nc2ccccc2)cc1)C(=O)N[C@@H](CC(=O)O)C(=O)N[C@H](C(=O)N1CCC[C@H]1C(=O)NC(C)C)C(C)C` [Compound 327] ({NHPh-CO}-[X2]LDVP-NHiPr): the IC50 is less than 0.05 µM.

Take `CC(C)C[C@H](NC(=O)CCc1ccccc1)C(=O)N[C@@H](CC(=O)O)C(=O)N[C@H](C(=O)O)C(C)C` [Compound 64] (HELM PEPTIDE1{[O=C(CCc1ccccc1)[*:2]].L.D.V}$$$$V2.0): the IC50 was more than 10 µM.

Turning to `COc1cc(CC(=O)N[C@@H](CC(C)C)C(=O)N[C@@H](CC(=O)O)C(=O)N[C@H](C(=O)N2CCC[C@H]2C(N)=O)C(C)C)ccc1NC(=O)Nc1ccccc1` [Compound 147] ({NHPh-CO}-[X3]LDVP-NH2), the IC50 was less than 0.05 µM.

In the case of `CC(=O)N[C@@H](Cc1ccccc1)C(=O)N[C@@H](CC(C)C)C(=O)N[C@@H](CC(=O)O)C(=O)N[C@H](C(=O)O)C(C)C` [Compound 152] (Ac-FLDV-OH), the IC50 was more than 10 µM.

As to `CC(C)C[C@H](NC(=O)[C@H](CC(=O)O)NC(=O)c1cc2ccccc2cn1)C(=O)O` [Compound 89], the IC50 is more than 10 µM.

As to `CC(C)C[C@H](NC(=O)C1CCc2ccccc2C1)C(=O)N[C@@H](CC(=O)O)C(=O)N[C@H](C(=O)O)C(C)C` (stereo partly shown) [Compound 73], the IC50 is more than 10 µM.

In the case of `Cc1ccccc1NC(=O)Nc1ccc(CC(=O)N[C@@H](CO)C(=O)N[C@@H](CC(=O)O)C(=O)N[C@@H](CCC(=O)O)C(N)=O)cc1` [Compound 279], the IC50 was less than 0.05 µM.

On to `CNC(=O)[C@@H](NC(=O)[C@H](CC(=O)O)NC(=O)[C@H](Cc1ccc(O)cc1)NC(=O)Cc1ccccc1)C(C)C` [Compound 129] (HELM PEPTIDE1{[O=C(Cc1ccccc1)[*:2]].Y.D.V.[CN[*:1]]}$$$$V2.0), for which the IC50 was more than 10 µM.

For `CNC(=O)[C@@H](NC(=O)[C@H](CC(=O)O)NC(=O)[C@H](CC(C)C)N(C)C(=O)Cc1ccc(O)cc1)C(C)C` [Compound 188], the IC50 was more than 10 µM.

Consider `CC(C)CNC(=O)[C@H](CC(=O)O)NC(=O)[C@H](CC(C)C)NC(=O)CCCc1ccccc1` [Compound 161], for which the IC50 is more than 10 µM.

On to `CNC(=O)[C@@H](NC(=O)[C@H](CC(=O)O)NC(=O)[C@H](CCCCN)NC(=O)Cc1ccccc1)C(C)C` [Compound 350] (HELM PEPTIDE1{[O=C(Cc1ccccc1)[*:2]].K.D.V.[CN[*:1]]}$$$$V2.0), for which the IC50 is more than 10 µM.

In the case of `CC(C)C[C@H](NC(=O)c1ccc2ccccc2n1)C(=O)N[C@@H](CC(=O)O)C(=O)NCCC(C)(C)C` [Compound 198], the IC50 was more than 10 µM.

With `CC(C)[C@H](NC(=O)[C@H](CC(=O)O)NC(=O)OC(C)(C)C)C(=O)O` [Compound 68] (HELM PEPTIDE1{[CC(C)(C)OC(=O)[*:2]].D.V}$$$$V2.0), the IC50 is more than 10 µM.

For `COC(=O)[C@@H](NC(=O)[C@H](CC(=O)O)NC(=O)[C@H](CC(C)C)NC(=O)Cc1ccccc1)[C@@H](C)OC` [Compound 190] (PhAc-Leu-Asp-Thr(Me)-OMe), the IC50 was more than 10 µM.

On to `CC(C)C[C@H](NC(=O)Cc1ccc(NC(=O)Nc2ccccc2)cc1)C(=O)N[C@@H](CC(=O)O)C(=O)N1CCOCC1` [Compound 214], for which the IC50 is 0.05 to 10 µM.

With `CNC(=O)[C@@H](NC(=O)[C@H](CC(=O)O)NC(=O)[C@H](CC(C)C)NC(=O)Cc1ccc(NC(=O)Nc2ccccc2)cc1)C(C)C` [Compound 204], the IC50 is 0.05 to 10 µM.

For `CSCC[C@H](NC(=O)Cc1ccc(NC(=O)Nc2ccccc2O)cc1)C(=O)N[C@@H](CC(=O)O)C(=O)N[C@H](C(=O)N1CCC[C@H]1C(=O)O)C(C)C` [Compound 146] ({X1-CO}-[X2]MDVP-OH), the IC50 is less than 0.05 µM.

Consider `CC(C)CNC(=O)[C@H](CC(=O)O)NC(=O)[C@H](CC(C)C)NC(=O)NC(C)(C)C` [Compound 171], for which the IC50 was more than 10 µM.

As for `CCCCCCNC(=O)[C@H](CC(=O)O)NC(=O)[C@H](CC(C)C)NC(=O)CCc1ccc(O)cc1` [Compound 116], the IC50 was more than 10 µM.

Take `CC(C)C[C@H](NC(=O)c1ccc2ccccc2n1)C(=O)N[C@@H](CC(=O)O)C(=O)N[C@H](C(=O)N1CCOCC1)C(C)C` [Compound 175]: the half-inhibitory concentration (IC50) is 0.05 to 10 µM.

For `CNC(=O)[C@@H](NC(=O)[C@H](CC(=O)O)NC(=O)[C@H](CC(C)C)N(C)C(=O)CCc1ccc(O)cc1)C(C)C` [Compound 46], the IC50 was more than 10 µM.

Consider `CSCC[C@H](NC(=O)[C@H](CC(=O)O)NC(=O)[C@@H]1CCCN1C(=O)Cc1ccc(NC(=O)Nc2ccccc2C)cc1)C(N)=O` [Compound 247], for which the IC50 is less than 0.05 µM.

As for `Cc1ccccc1NC(=O)Nc1ccc(CC(=O)N[C@H](C(=O)N[C@@H](CC(=O)O)C(=O)N[C@@H](CC(C)C)C(N)=O)[C@@H](C)O)cc1` [Compound 253], the IC50 was less than 0.05 µM.

Regarding `CC(C)C[C@H](NC(=O)Cc1ccc(NC(=O)Nc2ccccc2O)cc1)C(=O)N[C@@H](CC(=O)O)C(=O)N[C@H](C(=O)N1CCC[C@H]1C(=O)O)C(C)C` [Compound 144] ({X1-CO}-[X2]LDVP-OH), the IC50 was less than 0.05 µM.

On to `COc1ccc(C(=O)N[C@@H](CC(C)C)C(=O)N[C@@H](CC(=O)O)C(=O)NCC(C)C)cc1` [Compound 165], for which the IC50 was more than 10 µM.

Turning to `CC(C)C[C@H](NC(=O)CCC(=O)Nc1ccccc1)C(=O)N[C@@H](CC(=O)O)C(=O)N[C@H](C(=O)O)C(C)C` [Compound 107] ({NHPh-Suc}-Leu-Asp-Val-OH), the half-maximal inhibitory concentration (IC50) was more than 10 µM.

On to `CC(C)C[C@H](NC(=O)c1ccc2ccccc2n1)C(=O)N[C@@H](CC(=O)OCc1ccccc1)C(=O)N[C@H](C(=O)O)C(C)C` [Compound 159], for which the IC50 is more than 10 µM.

Consider `CC(C)C[C@H](NC(=O)Cc1ccc(NC(=O)Nc2ccccc2)cc1)C(=O)N[C@@H](CC(=O)O)C(=O)N[C@H](C(=O)O)C(C)C` [Compound 203], for which the IC50 was less than 0.05 µM.

Take `COC(=O)[C@@H](NC(=O)[C@H](CC(=O)O)NC(=O)[C@H](CC(C)C)NC(=O)Cc1ccccc1)[C@@H](C)OC(C)=O` [Compound 193] (PhAc-Leu-Asp-Thr(Ac)-OMe): the 50% inhibitory concentration (IC50) is more than 10 µM.

As to `COC(=O)[C@H](C(C)C)N(C)C(=O)[C@H](CC(=O)O)NC(=O)[C@H](CC(C)C)NC(=O)CCc1ccc(O)cc1` [Compound 20], the IC50 is more than 10 µM.

As to `Cc1ccccc1NC(=O)Nc1ccc(CC(=O)N[C@@H](CC(C)C)C(=O)N[C@@H](CC(=O)O)C(=O)N[C@H](C(N)=O)[C@@H](C)O)cc1` [Compound 235], the IC50 was less than 0.05 µM.

`CNC(=O)[C@@H](NC(=O)[C@H](CC(=O)O)NC(=O)[C@H](CC(C)C)N(C)C(=O)c1ccc2ccccc2n1)C(C)C` [Compound 179]: the IC50 was more than 10 µM.

Take `CCCCOC(=O)[C@@H](NC(=O)[C@H](CC(=O)O)NC(=O)[C@H](CC(C)C)NC(=O)Cc1ccccc1)C(C)C` [Compound 196]: the IC50 is more than 10 µM.

In the case of `CC(C)C[C@H](NC(=O)c1cc2ccccc2cn1)C(=O)N[C@@H](CC(=O)O)C(=O)N[C@H](C(=O)N1CCC[C@H]1C(=O)O)C(C)C` [Compound 32], the IC50 is more than 10 µM.

In the case of `COC(=O)[C@@H](NC(=O)[C@H](CC(=O)O)NC(=O)[C@H](CC(C)C)NC(=O)CCc1ccc(O)cc1)C(C)C` [Compound 19], the IC50 is more than 10 µM.

In the case of `CC(C)(C)OC(=O)N[C@@H](CC(=O)O)C(=O)N1CCC[C@H]1C(=O)NCC(=O)O` [Compound 135] (HELM PEPTIDE1{[CC(C)(C)OC(=O)[*:2]].D.P.G}$$$$V2.0), the IC50 was more than 10 µM.

With `CC(C)C[C@H](NC(=O)Cc1ccc(NC(=O)Nc2ccccn2)cc1)C(=O)N[C@@H](CC(=O)O)C(=O)N[C@H](C(=O)N1CCC[C@H]1C(=O)O)C(C)C` [Compound 316] ({X4-CO}-[X2]LDVP-OH), the IC50 was less than 0.05 µM.

For `CC(C)C[C@H](NC(=O)C1(NC(=O)OC(C)(C)C)CCc2ccccc2C1)C(=O)N[C@@H](CC(=O)O)C(=O)N[C@H](C(=O)O)C(C)C` (stereo partly shown) [Compound 63] (HELM PEPTIDE1{[CC(C)(C)OC(=O)[*:2]].[O=C(C1(N[*:1])CCc2ccccc2C1)[*:2]].L.D.V}$$$$V2.0), the IC50 is more than 10 µM.

As for `Cc1ccccc1NC(=O)Nc1ccc(CC(=O)N[C@@H](CCC(=O)O)C(=O)N[C@@H](CC(=O)O)C(=O)N[C@@H](CC(=O)O)C(N)=O)cc1` [Compound 263], the IC50 is less than 0.05 µM.

Take `CC(C)C[C@H](NC(=O)CCCc1ccccc1)C(=O)N[C@@H](CC(=O)O)C(=O)N[C@H](C(=O)O)C(C)C` [Compound 155]: the IC50 was more than 10 µM.

As to `CC(C)[C@H](NC(=O)[C@H](CC(=O)O)NC(=O)c1cc2ccccc2cn1)C(=O)O` [Compound 70], the IC50 was more than 10 µM.

`O=C(O)C[C@H](NC(=O)c1cc2ccccc2cn1)C(=O)N[C@@H](Cc1ccccc1)C(=O)O` [Compound 87]: the IC50 is more than 10 µM.

As for `CNC(=O)[C@@H](NC(=O)[C@H](CC(=O)O)NC(=O)C1(NC(=O)OC(C)(C)C)CCc2ccccc2C1)C(C)C` (stereo partly shown) [Compound 133], the IC50 is more than 10 µM.

Consider `CC(C)C[C@H](NC(=O)CCc1ccccc1)C(=O)N[C@@H](CC(=O)O)C(=O)N[C@H](C(=O)N1CCC[C@H]1C(=O)O)C(C)C` [Compound 36], for which the IC50 was more than 10 µM.

Consider `CCCCNC(=O)N[C@@H](CC(=O)O)C(=O)N[C@H](C(=O)OC)C(C)C` [Compound 169] ({NHBu-CO}-Asp-Val-OMe), for which the IC50 was more than 10 µM.

`CC(C)C[C@H](NC(=O)[C@H](CC(=O)O)NC(=O)[C@H](CC(C)C)NC(=O)c1cc2ccccc2cn1)C(=O)O` [Compound 91]: the IC50 is more than 10 µM.
